This assay relates to microbial inhibition test (Premi®Test). The method, then: Urine samples were examined using microbial inhibition test ampoules produced according to the methods described in EP 0005891 with the nutrients present in the agar. Said test is also known as Premi®Test (commercially available from DSM, Delft, The Netherlands).
Samples were examined as described in Example 1. CaCl2.2H2O was dissolved in water or chicken meat fluid, in concentrations of 0, 0.0078, 0.0156, 0.0312, 0.0625, 0.125, 0.25, 0.5 and 1 M. The samples were added to the test ampoules. After a pre-incubation for 20 minutes at room temperature the sample was removed and the test was incubated in a water bath at 64±1° C. following the instructions of the manufacturer. The results were obtained after 165 minutes for chicken meat fluid and 185 minutes in case of water, by reading the change of color from purple to yellow.

Structures are written as SMILES. Like-named read-outs stand apart in the source and are kept apart here.

Regarding `[Ca+2].[Cl-].[Cl-]` [CaCl2, Calcium Chloride], the “Color observed in microbial inhibition test” value is recorded as “Yellow” (CaCl2 0.0078 M in chicken meat fluid, read after 165 minutes); “Yellow” (CaCl2 0.0078 M in water, read after 185 minutes); “Yellow” (CaCl2 0.0156 M in chicken meat fluid, read after 165 minutes); “Yellow” (CaCl2 0.0156 M in water, read after 185 minutes); “Yellow” (CaCl2 0.0312 M in chicken meat fluid, read after 165 minutes); “Yellow” (CaCl2 0.0312 M in water, read after 185 minutes). In addition, the “Color observed in microbial inhibition test” value is “Yellow” (CaCl2 0.0625 M in chicken meat fluid, read after 165 minutes); “Yellow” (CaCl2 0.0625 M in water, read after 185 minutes); “Yellow” (CaCl2 0.125 M in chicken meat fluid, read after 165 minutes); “Yellow” (CaCl2 0.125 M in water, read after 185 minutes); “Yellow” (CaCl2 0.25 M in chicken meat fluid, read after 165 minutes); “Yellow” (CaCl2 0.25 M in water, read after 185 minutes). For the same compound, the “Color observed in microbial inhibition test” value (CaCl2 0.5 M in chicken meat fluid, read after 165 minutes) is “Yellow”; the “Color observed in microbial inhibition test” value (CaCl2 0.5 M in water, read after 185 minutes) is “Purple”; the “Color observed in microbial inhibition test” value (CaCl2 1 M in chicken meat fluid, read after 165 minutes) is given as “Yellow”; the “Color observed in microbial inhibition test” value (CaCl2 1 M in water, read after 185 minutes) is reported as “Purple”. In addition, the “Concentration of CaCl2 with no inhibition” value (in chicken meat fluid) is “up to 1 M”. For the same compound, the “Concentration of CaCl2 that does not influence the test results” value (in water) was “up to 0.25 M”.
